According to paper PMC12440824, “Chimeric deubiquitinase engineering reveals structural basis for specific inhibition of the mitophagy regulator USP30” (Nature Structural & Molecular Biology, 2025):
pIC50: −log10 of the molar value. Read-outs that look alike come from different tables or passages of the source.

What was measured:
[1] = system: overexpressed USP30 F157A, I154A, A162S in HEK293 cells; assay: Cellular ubiquitin probe competition, overexpressed USP30 F157A, I154A, A162S; assay type: cell-based, human; conditions: 2 µM compound, 2 h
Method: HEK293 cells (8 × 10^5 cells per well) were seeded in six-well plates and cultivated for 24 h. PEI transfecting reagent (Polysciences) was pre-incubated for 10 min with the vectors in 200 μl Opti-MEM medium (2 µg DNA per well). Cells were transfected and incubated for 48 h. Following the treatment with either compounds or DMSO in fresh medium for an additional 2 h, cells were processed as described below. Cells were seeded at 8 × 10^5 cells per well and grown for 48 h. […] The medium was aspirated, and cells were washed once with ice-cold PBS. Cells were collected by scraping in lysis buffer (150 mM NaCl, 250 mM sucrose, 50 mM Tris, pH 8.0, 5 mM TCEP) supplemented with EDTA-free complete protease inhibitor cocktail and benzonase. Suspended cells were homogenized by 12 bursts of a microtip probe sonicator (Branson Sonifier 450) at 10% amplitude with pulses of 1 s on ice. Remaining cell debris was separated by centrifugation (20,817g, 5 min, 4 °C). […] After incubation for 10 min at room temperature, reactions were quenched by the addition of 4× reducing LDS sample buffer. Samples were resolved by SDS–PAGE and further analyzed via western blot. Using a Trans-Blot Turbo system (Bio-Rad, 1.0 A, 25 V, 30 min), proteins were blotted onto a nitrocellulose membrane. […]

[2] = system: USP30 constructs (construct 1, chimeras 1–3); assay: Ub–RhoG cleavage enzyme inhibition assay, statements across constructs; assay type: biochemical, human; conditions: addition of hydroxyl group at the tert-butyl group
Method: Enzyme kinetics were performed in black, low-volume, non-binding-surface 384-well plates. For activity assays, 2× Ub–RhoG substrate (final concentration, 50 nM) and 2× enzyme (final concentration, 0.25–32 nM) were prepared in 20 mM HEPES, pH 8.0, 50 mM NaCl, 5 mM DTT, 0.1 mg ml^−1 BSA. Next, 10 µl of 2× enzyme solution was added in triplicate to the plate. The reaction was started by adding 10 µl of 2× substrate solution. For enzyme inhibition assays, 2× substrate (final concentration, 100 nM), 4× enzyme (final concentration, 0.1 nM) and 4× inhibitor (final concentration, 1.6 pM–1.6 μM) were prepared in 50 mM Tris-HCl, pH 8.0, 0.05 mg ml^−1 BSA, 4 mM DTT, 0.01% Tween-20. Inhibitor solution (4×) was added to 4× enzyme solution to create a 2× enzyme–inhibitor mixture. Next, 10 µl of this 2× enzyme–inhibitor mixture was then added to the plate in triplicate, and the plate was incubated at room temperature for 90 min. The reaction was started by adding 10 µl of 2× Ub–RhoG substrate. Substrate cleavage was monitored by measurement of cleaved RhoG fluorescence (excitation, 492 nm; emission, 525 nm) every 30 s for 1 h at 25 °C on a Tecan Spark plate reader. Data were analyzed with GraphPad Prism.

USP30^ch3 F157A = USP30^ch3 F157A (Homo sapiens, UniProt Q70CQ3, F157A, form not given); assay: Ub–RhoG cleavage enzyme inhibition assay, chimera 3 F157A; assay type: biochemical; conditions: mean n=3
Method: (§1) Enzyme kinetics were performed in black, low-volume, non-binding-surface 384-well plates. […] Next, 10 µl of 2× enzyme solution was added in triplicate to the plate. The reaction was started by adding 10 µl of 2× substrate solution. […] Inhibitor solution (4×) was added to 4× enzyme solution to create a 2× enzyme–inhibitor mixture. Next, 10 µl of this 2× enzyme–inhibitor mixture was then added to the plate in triplicate, and the plate was incubated at room temperature for 90 min. The reaction was started by adding 10 µl of 2× Ub–RhoG substrate. […] Data were analyzed with GraphPad Prism.

other DUBs = conditions: at 100 µM; cited from earlier work
USP30^ch3 A162S = USP30^ch3 A162S (Homo sapiens, UniProt Q70CQ3, A162S, form not given); assay: Ub–RhoG cleavage enzyme inhibition assay, chimera 3 A162S; assay type: biochemical; conditions: mean n=3
Method: as §1

USP30^ch3 I154A = USP30^ch3 I154A (Homo sapiens, UniProt Q70CQ3, I154A, form not given); assay: Ub–RhoG cleavage enzyme inhibition assay, chimera 3 I154A; assay type: biochemical; conditions: mean n=3
Method: as §1

USP30 [3] = system: USP30; set-up: method as in PMID 37385347; conditions: ‘pseudo-covalent’ binding mode proposed; cited from earlier work
USP30^ch2 = USP30^ch2 (Homo sapiens, UniProt Q70CQ3); assay: Ub–RhoG cleavage enzyme inhibition assay, chimera 2; assay type: biochemical; set-up: scale not given here; conditions: mean n=3
Method: as §1

recombinant USP30 = conditions: read-out: Ub–Rho IC50 against recombinant USP30; cited from earlier work
USP30 [4] = conditions: read-out: Cellular ABPP IC50 / cellular target engagement, cited from earlier work

USP30^ch3 F157A, sequence (Q70CQ3 64-502 F157A, form open): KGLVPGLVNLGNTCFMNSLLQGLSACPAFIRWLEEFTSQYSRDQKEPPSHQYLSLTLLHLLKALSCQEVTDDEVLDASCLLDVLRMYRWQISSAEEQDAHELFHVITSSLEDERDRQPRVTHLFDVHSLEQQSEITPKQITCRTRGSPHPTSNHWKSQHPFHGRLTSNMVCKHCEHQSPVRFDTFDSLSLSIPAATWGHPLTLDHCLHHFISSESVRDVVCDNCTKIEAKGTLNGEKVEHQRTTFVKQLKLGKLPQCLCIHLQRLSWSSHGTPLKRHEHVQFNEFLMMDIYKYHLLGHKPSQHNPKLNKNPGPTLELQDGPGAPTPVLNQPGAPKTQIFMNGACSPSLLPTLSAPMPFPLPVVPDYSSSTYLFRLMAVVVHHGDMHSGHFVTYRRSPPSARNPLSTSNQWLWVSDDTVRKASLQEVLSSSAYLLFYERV
USP30^ch3 F157A, sequence (P54578 248-318 partner, form open): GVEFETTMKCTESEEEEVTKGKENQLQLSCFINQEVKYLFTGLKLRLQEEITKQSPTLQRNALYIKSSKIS
USP30^ch3 F157A, sequence (Q9P2H5 821-846 partner, form open): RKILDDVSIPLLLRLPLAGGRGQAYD
USP30^ch3 A162S, sequence (Q70CQ3 64-502 A162S, form open): as the sequence (Q70CQ3 64-502 F157A, form open) above, with A94F, A99S counted along it
USP30^ch3 A162S, sequence (P54578 248-318 partner, form open): as the sequence (P54578 248-318 partner, form open) above
USP30^ch3 I154A, sequence (Q70CQ3 64-502 I154A, form open): as the sequence (Q70CQ3 64-502 F157A, form open) above, with I91A, A94F counted along it
USP30^ch3 I154A, sequence (P54578 248-318 partner, form open): as the sequence (P54578 248-318 partner, form open) above
USP30^ch2, sequence (Q70CQ3 64-502): as the sequence (Q70CQ3 64-502 F157A, form open) above, with A94F counted along it
USP30^ch2, sequence (P54578 248-318 partner): as the sequence (P54578 248-318 partner, form open) above

Q: Which results are given for `CC(C)(CO)NS(=O)(=O)c1ccc(NC(=O)[C@H](Cc2ccccc2)NC(=O)c2ccc(F)cc2)cc1` [NK036]?
A: inhibition of overexpressed USP30 F157A, I154A, A162S in cells [1]: refractory to inhibition; decrease in potency relative to compound 39 [2]: about one order of magnitude

Q: What does the source list for `CC(C)(C)NS(=O)(=O)c1ccc(NC(=O)[C@H](Cc2ccccc2)NC(=O)c2ccc(F)cc2)cc1` [compound 39]?
A: USP30ch3 F157A activity (USP30^ch3 F157A; inhibitor 0.001563 nM): 0.978; USP30ch3 F157A activity (USP30^ch3 F157A; inhibitor 0.00625 nM): 1.043; USP30ch3 F157A activity (USP30^ch3 F157A; inhibitor 0.025 nM): 0.9706; USP30ch3 F157A activity (USP30^ch3 F157A; inhibitor 0.1 nM): 0.9583; USP30ch3 F157A activity (USP30^ch3 F157A; inhibitor 0.39 nM): 0.8963; USP30ch3 F157A activity (USP30^ch3 F157A; inhibitor 1.56 nM): 0.8924; USP30ch3 F157A activity (USP30^ch3 F157A; inhibitor 6.25 nM): 0.7707; USP30ch3 F157A activity (USP30^ch3 F157A; inhibitor 25 nM): 0.6122; USP30ch3 F157A activity (USP30^ch3 F157A; inhibitor 100 nM): 0.362; USP30ch3 F157A activity (USP30^ch3 F157A; inhibitor 400 nM): 0.2241; USP30ch3 F157A activity (USP30^ch3 F157A; inhibitor 1600 nM): 0.2066; inhibition of other DUBs in a panel of recombinant enzymes (other DUBs): no other DUB being inhibited; USP30ch3 A162S activity (USP30^ch3 A162S; inhibitor 0.001563 nM): 0.9737; USP30ch3 A162S activity (USP30^ch3 A162S; inhibitor 0.00625 nM): 1.01; USP30ch3 A162S activity (USP30^ch3 A162S; inhibitor 0.025 nM): 0.9776; USP30ch3 A162S activity (USP30^ch3 A162S; inhibitor 0.1 nM): 0.9451; USP30ch3 A162S activity (USP30^ch3 A162S; inhibitor 0.39 nM): 0.896; USP30ch3 A162S activity (USP30^ch3 A162S; inhibitor 1.56 nM): 0.93; USP30ch3 A162S activity (USP30^ch3 A162S; inhibitor 6.25 nM): 0.7972; USP30ch3 A162S activity (USP30^ch3 A162S; inhibitor 25 nM): 0.6308; USP30ch3 A162S activity (USP30^ch3 A162S; inhibitor 100 nM): 0.4027; USP30ch3 A162S activity (USP30^ch3 A162S; inhibitor 400 nM): 0.2411; USP30ch3 A162S activity (USP30^ch3 A162S; inhibitor 1600 nM): 0.2091; USP30ch3 I154A activity (USP30^ch3 I154A; inhibitor 0.001563 nM): 1.024; USP30ch3 I154A activity (USP30^ch3 I154A; inhibitor 0.00625 nM): 1.056; USP30ch3 I154A activity (USP30^ch3 I154A; inhibitor 0.025 nM): 0.9999; USP30ch3 I154A activity (USP30^ch3 I154A; inhibitor 0.1 nM): 1.007; USP30ch3 I154A activity (USP30^ch3 I154A; inhibitor 0.39 nM): 0.9637; USP30ch3 I154A activity (USP30^ch3 I154A; inhibitor 1.56 nM): 0.9166; USP30ch3 I154A activity (USP30^ch3 I154A; inhibitor 6.25 nM): 0.8225; USP30ch3 I154A activity (USP30^ch3 I154A; inhibitor 25 nM): 0.6606; USP30ch3 I154A activity (USP30^ch3 I154A; inhibitor 100 nM): 0.4173; USP30ch3 I154A activity (USP30^ch3 I154A; inhibitor 400 nM): 0.274; USP30ch3 I154A activity (USP30^ch3 I154A; inhibitor 1600 nM): 0.2192; off-rate (USP30 [3]): exceptionally slow off-rate; USP30ch2 activity (USP30^ch2; inhibitor 0.0015625 nM): 0.9681; USP30ch2 activity (USP30^ch2; inhibitor 0.00625 nM): 1.022; USP30ch2 activity (USP30^ch2; inhibitor 0.025 nM): 0.8647; USP30ch2 activity (USP30^ch2; inhibitor 0.1 nM): 0.7206; USP30ch2 activity (USP30^ch2; inhibitor 0.39 nM): 0.5237; USP30ch2 activity (USP30^ch2; inhibitor 1.56 nM): 0.3579; USP30ch2 activity (USP30^ch2; inhibitor 6.25 nM): 0.1977; USP30ch2 activity (USP30^ch2; inhibitor 25 nM): 0.0871; USP30ch2 activity (USP30^ch2; inhibitor 100 nM): 0.04077; USP30ch2 activity (USP30^ch2; inhibitor 400 nM): 0.01798; USP30ch2 activity (USP30^ch2; inhibitor 1600 nM): 0.005204; pIC50 (recombinant USP30): 7.70 to 8.70; pIC50 (USP30 [4]; listed as Compound 39): > 7.30; pIC50 (USP30 [4]): 7.30 to 8.00
